Tested on: class A GPCR SST receptor
Assay: Effect of FLAG fusion on somatostatin (data not shown)
Settings: result in words

## somatostatin with FLAG fusion: FLAG fusion of somatostatin, endogenous circular peptide agonist acting on class A GPCR SST receptor
  effect of the FLAG fusion: beneficial effect

From article PMC4427575, “Functional screening system for yeast-secreted peptides acting on G-protein coupled receptors” (AMB Express, 2015)
